From patent US20220087987A1, “A METHOD FOR TREATING SWI/SNF COMPLEX-DEFICIENT CANCERS COMPRISING GLUTATHIONE (GSH) METABOLIC PATHWAY INHIBITOR” (National Cancer Center, priority 2018, published 2022)
Counter-ions that a name gives are not always drawn. Like-named read-outs stand apart in the source and are kept apart here. Peptide text beside a SMILES is read from it. * marks the point of attachment. Cbz = O=C(OCc1ccccc1)*

Experiments:
ARID1A-KO HCT116 cells = experiment: Drug library screen, cell viability (CellTiter-Glo); format: cell-based, human; conditions: Homo sapiens, HCT-116, 120 h, read-out: Cell viability, KO
Summary of the method: (§1)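 ARID1A-WT and ARID1A-KO HCT116 cells screened against the library; viability read after 5 days by CellTiter-Glo luminescence, expressed relative to DMSO-treated cells. Hits: KO viability below 40% with WT viability above 80%.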

[1] = as above; format: cell-based, human; conditions: human
Summary of the method: as §1

[2] = HCT116 ARID1A-KO, 10 μM for 5 days, relative to cells treated with solvent (DMSO)
[3] = HCT116 ARID1A-WT, 10 μM for 5 days, relative to cells treated with solvent (DMSO), read-out: Cell viability, WT

Compound	viability at 10 µM (ARID1A-KO HCT116 cells; [2]) [%]	viability at 5 days, 10 μM [1, 3] [%]	further results
CNC(=O)c1ccc(N2C(=S)N(c3ccc(C#N)c(C(F)(F)F)c3)C(=O)C2(C)C)cc1F [MDV3100]	94.9	88.8	
CC(C)C[C@@H](C=O)NC(=O)[C@H](CC(C)C)NC(=O)[C@H](CC(C)C)NC(=O)OCc1ccccc1 [MG-132] (Cbz-Leu-Leu-Leu-aldehyde)	2.45		viability [1, 3]: 3.45%
NC(=O)c1cccc2cn(-c3ccc([C@@H]4CCCNC4)cc3)nc12 [MK-4827 (Niraparib), Niraparib]	28.7	29.3	
COc1cc(Nc2ncc3c(n2)-c2ccc(Cl)cc2C(c2c(F)cccc2OC)=NC3)ccc1C(=O)O [MLN8237]	39.1	36.8	
CN(Cc1cnc2nc(N)nc(N)c2n1)c1ccc(C(=O)N[C@@H](CCC(=O)O)C(=O)O)cc1 [Methotrexate]	43.9	43	
CC#C[C@]1(O)CC[C@H]2[C@@H]3CCC4=CC(=O)CCC4=C3[C@@H](c3ccc(N(C)C)cc3)C[C@@]21C [Mifepristone]	85.3	95.9	
CCOC(=O)C1=C(C)NC(=S)NC1c1cccc(O)c1 (centres unmarked) [Monastrol]	104	102	
CC[C@@]1([C@@H]2O[C@@H]([C@H]3O[C@@](O)(CO)[C@H](C)C[C@@H]3C)C[C@@H]2C)CC[C@H]([C@]2(C)CC[C@]3(C[C@H](O)[C@@H](C)[C@@H]([C@@H](C)[C@@H](OC)[C@H](C)C(=O)O)O3)O2)O1 [Monensin]			viability at 10 µM (ARID1A-KO HCT116 cells): 3.95%; viability at 5 days, 10 μM [1]: 3.45%
CC(=O)N[C@@H](CS)C(=O)O [N-Acetyl-L-cysteine]	139	186	
O=C(O)c1ccccc1Nc1ccccc1 [N-phenylanthranilic acid]	118	101	
CS(=O)(=O)Nc1ccc([N+](=O)[O-])cc1OC1CCCCC1 [NS-398]		177	viability at 10 µM (ARID1A-KO HCT116 cells): 142%
CCn1cc(C(=O)O)c(=O)c2ccc(C)nc21 [Nalidixic acid]	97.5	102	
CO[C@@H]1C[C@@H](C[C@H]2CC[C@H](C)[C@H]([C@@H](C)C(=O)O)O2)O[C@]2(O[C@](C)([C@H]3CC[C@@](C)([C@@H]4O[C@@H]([C@H]5O[C@@](O)(CO)[C@H](C)C[C@@H]5C)C[C@@H]4C)O3)C[C@H]2C)[C@@H]1C [Nigericin]			viability at 10 µM (ARID1A-KO HCT116 cells): 4.01%; viability at 5 days, 10 μM [1]: 3.47%
COC(=O)Nc1nc2ccc(C(=O)c3cccs3)cc2[nH]1 [Nocodazole]		6.51	viability at 10 µM (ARID1A-KO HCT116 cells): 7.15%
CC(Cc1ccc(O)c(O)c1)C(C)Cc1ccc(O)c(O)c1 (centres unmarked) [Nordihydroguaiaretic acid (NDGA), Nordihydroguaiaretic acid]	112	101	
C[C@]1(O)C[C@@H](c2nc(-c3ccc4ccc(-c5ccccc5)nc4c3)c3c(N)nccn32)C1 [OSI-906]	79.1	59.1	
NCC(=O)Nc1ccc(-n2nc(C(F)(F)F)cc2-c2ccc3c(ccc4ccccc43)c2)cc1 [OSU-03012]	105	91.9	
O=C(c1cc(Cc2n[nH]c(=O)c3ccccc23)ccc1F)N1CCN(C(=O)C2CC2)CC1 [Olaparib]	19.5	20.9	
CC[C@H]1/C=C/C=C/C[C@@H](C)[C@H](O)[C@@](C)(O)C(=O)[C@@H](C)[C@H](O)[C@@H](C)C(=O)[C@@H](C)[C@H](O)[C@@H](C)/C=C/C(=O)O[C@@H]2[C@H](C)[C@H](CC1)O[C@]1(CC[C@H](C)[C@H](C[C@@H](C)O)O1)[C@H]2C [Oligomycin]	21.7	13.6	
Cn1cnc2c(NCc3ccccc3)nc(NCCO)nc21 [Olomoucine]		173	viability at 10 µM (ARID1A-KO HCT116 cells): 122%
C[C@@H]1O[C@@H](O[C@H]2C[C@@H](O)[C@]3(CO)[C@H]4[C@H](O)C[C@]5(C)[C@@H](C6=CC(=O)OC6)CC[C@]5(O)[C@@H]4CC[C@]3(O)C2)[C@H](O)[C@H](O)[C@H]1O [Ouabain]	5.12		viability [1, 3]: 4.81%
CC(=O)O[C@H]1C(=O)[C@@]2(C)[C@H]([C@H](OC(=O)c3ccccc3)[C@]3(O)C[C@H](OC(=O)[C@H](O)[C@@H](NC(=O)c4ccccc4)c4ccccc4)C(C)=C1C3(C)C)[C@]1(OC(C)=O)CO[C@@H]1C[C@@H]2O [Paclitaxel]	6.42	4.91	
NNCCc1ccccc1 [Phenelzine]	119	101	
C[C@@H]1C[C@H]2O[C@@H]2/C=C\C=C\C(=O)Cc2c(Cl)c(O)cc(O)c2C(=O)O1 [Radicicol]	5.65	7.12	
CO[C@H]1C[C@@H]2CC[C@@H](C)[C@@](O)(O2)C(=O)C(=O)N2CCCC[C@H]2C(=O)O[C@H]([C@H](C)C[C@@H]2CC[C@@H](O)[C@H](OC)C2)CC(=O)[C@H](C)/C=C(\C)[C@@H](O)[C@@H](OC)C(=O)[C@H](C)C[C@H](C)/C=C/C=C/C=C/1C [Rapamycin]	125	169	
C=C(C)[C@H]1Cc2c(ccc3c2O[C@@H]2COc4cc(OC)c(OC)cc4[C@@H]2C3=O)O1 [Rotenone]	6.99		viability [1, 3]: 5.52%

Compound	viability at 10 µM (ARID1A-KO HCT116 cells; [2]) [%]	viability at 5 days, 10 μM [1, 3] [%]	further results
N#CC[C@H](C1CCCC1)n1cc(-c2ncnc3[nH]ccc23)cn1 [Ruxolitinib]	86.1	58.1	
Oc1c2ccccc2c2c3c(cccc13)N=N2 [SP600125]	105	172	
C[n+]1cc2c3c(ccc2c2ccc4cc5c(cc4c21)OCO5)OCO3 [Sanguinarine]	2.09		viability [1, 3]: 1.83%
O=C(CCCCCN1C(=O)c2cccc3cccc(c23)C1=O)NO [Scriptaid]	5.74	6.95	
O=C([O-])c1ccccc1O.[Na+] [Sodium salicylate]			viability at 10 µM (ARID1A-KO HCT116 cells): 125%; viability [1]: 177%
CN[C@@H]1C[C@H]2O[C@@](C)([C@@H]1OC)n1c3ccccc3c3c4c(c5c6ccccc6n2c5c31)C(=O)NC4 [Staurosporine]	4.14		viability [1, 3]: 5.22%
CSc1ccc(/C=C2/C(C)=C(CC(=O)O)c3cc(F)ccc32)cc1 [Sulindac sulfide]	140	195	
O[C@H]1[C@H]2[C@H](O)CCCN2C[C@H]1O [Swainsonine]	110		viability [1, 3]: 115%
CC1=C(O)C(=O)[C@@H]2O[C@@H]2C1=O [Terreic acid]	90.5		viability [1, 3]: 88.9%
C/C=C(/C)C(=O)O[C@H]1C(C)=C2[C@H]([C@@H]1OC(=O)CCCCCCC)[C@@](C)(OC(C)=O)C[C@H](OC(=O)CCC)[C@@]1(O)[C@H]2OC(=O)[C@@]1(C)O [Thapsigargin]			viability at 10 µM (ARID1A-KO HCT116 cells): 2.88%; viability at 5 days, 10 μM [1]: 2.63%
Cn1c(=O)c2[nH]cnc2n(C)c1=O [Theophylline]	140	203	
Cc1c(C)c2c(c(C)c1O)CCC(C)(COc1ccc(CC3SC(=O)NC3=O)cc1)O2 (centres unmarked) [Troglitazone]	94.7	101	
N#CC(=C(/N)Sc1ccccc1N)/C(C#N)=C(\N)Sc1ccccc1N [U0126]			viability at 10 µM (ARID1A-KO HCT116 cells): 68.3%; viability [1]: 80.5%
COc1cc2c(NC3CCN(C(C)C)CC3)nc(C3CCCCC3)nc2cc1OCCCN1CCCC1 [UNC0638]	3.8	2.6	
CC(C)[C@@H]1NC(=O)[C@H](C)OC(=O)[C@@H](C(C)C)NC(=O)[C@@H](C(C)C)OC(=O)[C@H](C(C)C)NC(=O)[C@H](C)OC(=O)[C@@H](C(C)C)NC(=O)[C@@H](C(C)C)OC(=O)[C@H](C(C)C)NC(=O)[C@H](C)OC(=O)[C@@H](C(C)C)NC(=O)[C@@H](C(C)C)OC1=O [Valinomycin]	4.17		viability [1, 3]: 3.65%
COc1cc2c(Nc3ccc(Br)cc3F)ncnc2cc1OCC1CCN(C)CC1 [Vandetanib]	28.9	14.1	
CCCS(=O)(=O)Nc1ccc(F)c(C(=O)c2c[nH]c3ncc(-c4ccc(Cl)cc4)cc23)c1F [Vemurafenib]	108	103	
CC[C@]1(O)C[C@@H]2CN(CCc3c([nH]c4ccccc34)[C@@](C(=O)OC)(c3cc4c(cc3OC)N(C)[C@H]3[C@@](O)(C(=O)OC)[C@H](OC(C)=O)[C@]5(CC)C=CCN6CC[C@]43[C@@H]65)C2)C1 [Vinblastine sulfate]	4.49	2.73	
CS(=O)(=O)c1ccc(C(=O)Nc2ccc(Cl)c(-c3ccccn3)c2)c(Cl)c1 [Vismodegib]	109	88.7	
C[C@H](NC(=O)/C(C#N)=C/c1cccc(Br)n1)c1ccccc1 [WP1066]	20	15.3	
COC[C@H]1OC(=O)c2coc3c2[C@@]1(C)C1=C(C3=O)[C@@H]2CCC(=O)[C@@]2(C)C[C@H]1OC(C)=O [Wortmannin]	116	181	
Oc1nc(-c2ccc(C(F)(F)F)cc2)nc2c1CSCC2 [XAV939]	111	87	
COc1cc(O)c(CC=C(C)C)c(O)c1C(=O)/C=C/c1ccc(O)cc1 [Xanthohumol]	112	104	
C[C@@H](N)[C@H]1CC[C@H](C(=O)Nc2ccncc2)CC1 [Y27632]		160	viability at 10 µM (ARID1A-KO HCT116 cells): 98.6%
COCCn1c2c([n+](Cc3cnccn3)c1C)C(=O)c1ccccc1C2=O [YM155]	3.24	2.67	
CCCOc1ccccc1-c1nc2nn[nH]c2c(=O)[nH]1 [Zaprinast]	82.6	93.5	
